US20250144109A1, “Compositions for preventing or treating pulmonary arterial hypertension” (CHONG KUN DANG PHARMACEUTICAL CORP., priority 2022, published 2025)

Key:
[1] = system: tubulin acetylation in HPAEC (Human pulmonary artery endothelial cells); test: Tubulin acetylation in HPAEC by Western blot (anti-acetyl tubulin); type: cell-based; details: 4 hours at 37° C., concentration 0.1μ, FIG. 1
Experimental: HPAEC (3.0×10^5 cells/well, Human pulmonary artery endothelial cells) pulmonary artery endothelial cells were seeded in a six-well plate, and then treated with drugs (compounds 43, 295, 296, 40, 239, and 285) at each concentration. In four hours later at 37° C., proteins were extracted with lysis buffer and quantified by Bradford method. 5 μg of proteins were dissolved in sample buffer, subjected to electrophoresis on 4-12% gradient gel, transferred to a nitrocellulose membrane for seven minutes, and blocked in a 3% BSA solution for one hour. Anti-acetyl tubulin (1:1,000) and GAPDH (1:2,000) were added to the 3% BSA solution, after which the membrane was immersed therein and reacted at 4° C. for 10 hours, and then washed three times with 1×TBST for 10 minutes, respectively. IgG-HRP antibody (1:5,000) was added to 5% BSA, after which the membrane was immersed therein and reacted at room temperature for one hour, and then washed three times with 1×TBST for 10 minutes, respectively. In above FIG. 1, a control group indicates cells not treated with the compounds of Synthesis Examples.

[2] = system: HPAEC cells; test: Cell viability (CCK-8) of TGF-β stimulated HPAEC cells; type: cell-based, Human; details: 1 μM drug with TGF-β 10 ng/ml, 48 hours, vs TGF-β only, FIG. 2
Experimental: TGF-β stimulation to HPAEC cells, which are a model of pulmonary arterial hypertension disease, and the survival rate according to the compounds of Synthesis Examples 1 to 6 were confirmed through cell viability measurement.
HPAEC (2.0×10^3 cells/well) cells were seeded in 96-well plate, and cultured for 24 hours in a serum free medium as starvation. 1 μM concentration of drugs (compounds 43, 295, 296, 40, 239, 285) were simultaneously treated with TGF-β (10 ng/ml) and cultured for 48 hours, after which cell viability was measured through CCK-8 assay, and the results thereof are shown in FIG. 2. In above FIG. 2, a control group indicates cells not treated with TGF-β and the compounds of Synthesis Examples, and “-” indicates cells treated only with TGF-β.

[3] = system: HPASMC (human pulmonary artery smooth muscle) cells; test: Cell proliferation inhibition (CCK-8) in TGF-β stimulated HPASMC cells; type: cell-based; details: 1 μM drug with TGF-β 10 ng/ml, 24 hours, vs TGF-β only, FIG. 3
Experimental: TGF-β stimulation to HPASMC (human pulmonary artery smooth muscle) cells, which are a model of pulmonary arterial hypertension disease, and a cell proliferation inhibition rate according to treatment with six compounds of Synthesis Examples 1 to 6 were confirmed through cell viability measurement.
HPASMC (5.0×10^3 cells/well) cells were seeded in 96-well plate, and cultured for 24 hours in a serum free medium as starvation. 1 μM concentration of drugs (compounds 43, 295, 296, 40, 239, 285) were simultaneously treated with TGF-β (10 ng/ml) and cultured for 24 hours, after which cell viability was measured through CCK-8 assay, and the results thereof are shown in FIG. 3. In above FIG. 3, a control group indicates cells not treated with TGF-β and the compounds of Synthesis Examples, and “-” indicates cells treated only with TGF-β.

[4] = system: SD rats with monocrotaline (MCT)-induced pulmonary arterial hypertension; test: MCT-induced pulmonary arterial hypertension animal model (survival, lung and ventricle weights, ECG); type: in vivo, rat; details: 20 mg/kg oral twice a day
Experimental: SD rats having the following conditions were prepared.
Rats, experimental animals, were divided into groups as follows in consideration of a body weight on the day before drug administration began.
During a test period, the normal group was dosed with saline, and the control group (MCT+Vehicle) was subcutaneously dosed with a monocrotaline (MCT) aqueous solution once at 3 ml/Kg, and then dosed with a vehicle consisting of a mixed solution of cremophor EL, ethanol, and saline at a volume ratio of 1:1:8. A MCT aqueous solution was prepared to reach a concentration of 20 mg/mL in a solvent adjusted to pH 7.4 using a 1 N NAOH solution in 1 N HCL. After that, subcutaneous administration was performed by adjusting to […].
The drug administration group was first subcutaneously dosed with the MCT aqueous solution at 3 ml/Kg once, and then orally dosed with compound 43 (the compound of Synthesis Example 1) at 20 mg/Kg twice a day during the test period (four weeks). The compound 43 was dissolved in a mixed solution of cremophor EL, ethanol, and saline at a volume ratio of 1:1:8, and then orally administered.
All data were expressed as mean±standard error, and each group and the control group were compared using an unpaired T test (p<0.05) to determine the effect of each experimental group.
After group separation and then administration of the MCT aqueous solution, the survival rate was evaluated by confirming a dead individual during the test period.
The individual survival rate was calculated by reflecting the number of animals surviving in the corresponding week from the first 10 animals participating in the experiment for each group. Each number on the left side of the line graph means an individual survival rate % (number of surviving individuals/total number of animals participating in experiment).
After four weeks of the test period, the lung and the heart were removed to measure the weight of the lung and the weight of left ventricle and right ventricle in each group, and the results are shown in FIGS. 5 and 6.
After four weeks of the test period, the animal was subjected to inhalation anesthesia with isoflurane, and electrodes were attached to the limbs to measure the animal's electrocardiogram for more than 30 seconds. The result was measured using a Bio Amp ECG meter and analysis was performed using LabChart 8 software.

[5] = MCT rats, after four weeks, vs control group

SMILES	tubulin acetylation (acetyl tubulin expression level) [1]	survival rate (cell viability) after TGF-β stimulation [2]	proliferation rate after TGF-β stimulation [3]	individual survival rate ([4]; MCT 50 mg/kg s.c. once, four weeks, vehicle control 50%, FIG. 4)	JT interval (ECG) [4, 5]	QT interval (ECG) [4, 5]	QTc (ECG) [4, 5]	ratio of right ventricle weight to left ventricle weight ([4]; MCT rats, after four weeks, vs control group, FIG. 6)
O=C(N1CCS(=O)(=O)CC1)N(Cc1ccc(-c2nnc(C(F)F)o2)cn1)c1cccc(F)c1 [Compound 296, N-((5-(5-(difluoromethyl)-1,3,4-oxadiazol-2-yl)pyridin-2-yl)methyl)-N-(3-fluorophenyl)thiomorpholine-4-carboxamide 1,1-dioxide]	tubulin acetylation was expressed	improved	inhibited	–	–	–	–	–
O=C(N1CCS(=O)(=O)CC1)N(Cc1ccc(-c2nnc(C(F)F)o2)cc1F)c1ccccc1 [Compound 40, N-(4-(5-(difluoromethyl)-1,3,4-oxadiazol-2-yl)-2-fluorobenzyl)-N-phenylthiomorpholine-4-carboxamide 1,1-dioxide]	tubulin acetylation was expressed	improved	inhibited	–	–	–	–	–
O=C(N1CCS(=O)(=O)CC1)N(Cc1ccc(-c2nnc(C(F)F)o2)cn1)c1cccc(Cl)c1 [Compound 239, N-(3-chlorophenyl)-N-((5-(5-(difluoromethyl)-1,3,4-oxadiazol-2-yl)pyridin-2-yl)methyl)thiomorpholine-4-carboxamide 1,1-dioxide]	tubulin acetylation was expressed	improved	inhibited	–	–	–	–	–
O=C(N1CCS(=O)(=O)CC1)N(Cc1ccc(-c2nnc(C(F)F)o2)cn1)c1ccc(F)cc1 [Compound 295, N-((5-(5-(difluoromethyl)-1,3,4-oxadiazol-2-yl)pyridin-2-yl)methyl)-N-(4-fluorophenyl)thiomorpholine-4-carboxamide 1,1-dioxide]	tubulin acetylation was expressed	improved	inhibited	–	–	–	–	–
O=C(N1CCS(=O)(=O)CC1)N(Cc1ccc(-c2nnc(C(F)F)o2)cn1)c1ccccc1 [Compound 43, N-((5-(5-(difluoromethyl)-1,3,4-oxadiazol-2-yl)pyridin-2-yl)methyl)-N-phenylthiomorpholine-4-carboxamide 1,1-dioxide]	tubulin acetylation was expressed	improved	inhibited	90%	significantly reduced	significantly reduced	significantly reduced	significantly reduced
O=C(N1CCS(=O)(=O)CC1)N(Cc1ccc(-c2nnc(C(F)F)o2)cc1F)c1ccc(F)cc1 [Compound 285, N-(4-(5-(difluoromethyl)-1,3,4-oxadiazol-2-yl)-2-fluorobenzyl)-N-(4-fluorophenyl)thiomorpholine-4-carboxamide 1,1-dioxide]	tubulin acetylation was expressed	improved	inhibited	–	–	–	–	–
